Source: patent US20030235877A1, “Conjugates of haptens to beta-lactam derivatives and their use for detecting and/or quantifying haptens in solution and device for implementation thereof” (priority 1996, published 2003)

The compounds below were run against T1, β-lactamase of Enterobacter cloacae P99 (Enterobacter cloacae, UniProt P05364) (assay: Ki of conjugates, calculated using the β-lactamase of Enterobacter cloacae P99). Details: not given.
T1 construct: Class C β-lactamase as that extracted from Enterobacter cloacae P99; host or cells: Enterobacter cloacae P99 (enzyme described as extracted from this strain)
Format: biochemical
Source text: (§1) The particular mode of conjugation claimed in the present invention guarantees to maintain kinetic parameters (Km, Ki, kcat and Ka=k2/K, where Km is the enzyme Michaelis-Menten constant, Ki is the inhibitor-enzyme complex dissociation constant, kcat the catalytic constant and Ka the apparent second-order rate constant for acyl enzyme formation respectively) toward β-lactamases and penicillin detectors, which are essentially the same as those of common penicillins.
^x(Column 9): calculated using the β-lactamase of Enterobacter cloacae P99

T1 sequence (P05364 21-381): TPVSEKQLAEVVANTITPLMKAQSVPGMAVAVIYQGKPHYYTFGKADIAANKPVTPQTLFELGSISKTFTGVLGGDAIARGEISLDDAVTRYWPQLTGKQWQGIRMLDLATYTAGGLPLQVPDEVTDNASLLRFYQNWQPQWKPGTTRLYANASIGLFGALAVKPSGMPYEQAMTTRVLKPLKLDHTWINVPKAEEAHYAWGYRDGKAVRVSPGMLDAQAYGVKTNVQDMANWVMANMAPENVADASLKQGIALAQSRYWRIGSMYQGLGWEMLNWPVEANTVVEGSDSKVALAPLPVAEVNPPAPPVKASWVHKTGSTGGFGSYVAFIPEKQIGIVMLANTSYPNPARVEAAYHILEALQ

| Compound | Ki [nM] |
| --- | --- |
| Cc1onc(-c2ccc(OCCOC3CCC4C5CCc6cc(O)ccc6C5CCC34C)c(Cl)c2)c1C(=O)NC1C(=O)N2C1SC(C)(C)C2C(=O)O (stereo not drawn) [Conjugate 10] | 14 ± 17 |
| Cc1onc(-c2ccc(NC(=O)CCOC3CCC4C5CCC6=CC(=O)CCC6C5CCC34C)cc2)c1C(=O)NC1C(=O)N2C1SC(C)(C)C2C(=O)O (stereo not drawn) [Conjugate 21] | 30 ± 33 |
| Cc1onc(-c2ccc(OCCC(=O)OC3CCC4C5CCc6cc(O)ccc6C5CCC34C)cc2)c1C(=O)NC1C(=O)N2C1SC(C)(C)C2C(=O)O (stereo not drawn) [Conjugate 29] | 21 ± 24 |
| CC(=O)C1CCC2C3CCC4=CC(=O)CCC4(C)C3C(OCCCNC(=O)c3ccc(-c4noc(C)c4C(=O)NC4C(=O)N5C4SC(C)(C)C5C(=O)O)cc3)CC12C (stereo not drawn) [Conjugate 17] | 21 ± 24 |
| Cc1onc(-c2ccc(C(=O)OC3CCC4C5CCC6=CC(=O)CCC6C5CCC34C)cc2)c1C(=O)NC1C(=O)N2C1SC(C)(C)C2C(=O)O (stereo not drawn) [Conjugate 5] | 18 ± 23 |
| Cc1onc(-c2ccc(NC(=O)CCOC3CCC4C5CCC6=CC(=O)CCC6(C)C5CCC34C)cc2)c1C(=O)NC1C(=O)N2C1SC(C)(C)C2C(=O)O (stereo not drawn) [Conjugate 20] | 29 ± 27 |
| CC(=O)C1CCC2C3CCC4=CC(=O)CCC4(C)C3C(OCCOc3ccc(-c4noc(C)c4C(=O)NC4C(=O)N5C4SC(C)(C)C5C(=O)O)cc3Cl)CC12C (stereo not drawn) [Conjugate 13] | 20 ± 21 |
| Cc1onc(-c2ccc(OCCC(=O)OC3CCC4C5CCC6=CC(=O)CCC6C5CCC34C)cc2)c1C(=O)NC1C(=O)N2C1SC(C)(C)C2C(=O)O (stereo not drawn) [Conjugate 25] | 28 ± 31 |
| Cc1onc(-c2ccc(C(=O)NCCCCC(=O)OC3CCC4C5CCC6=CC(=O)CCC6C5CCC34C)cc2)c1C(=O)NC1C(=O)N2C1SC(C)(C)C2C(=O)O (stereo not drawn) [Conjugate 8] | 23 ± 18 |
| Cc1onc(-c2ccc(C(=O)NCCCOC3CCC4C5CCc6cc(O)ccc6C5CCC34C)cc2)c1C(=O)NC1C(=O)N2C1SC(C)(C)C2C(=O)O (stereo not drawn) [Conjugate 14] | 18 ± 23 |
| Cc1onc(-c2ccc(NC(=O)CCOC3CCC4C5CCc6cc(O)ccc6C5CCC34C)cc2)c1C(=O)NC1C(=O)N2C1SC(C)(C)C2C(=O)O (stereo not drawn) [Conjugate 23] | 19 ± 21 |
| CC(=O)C1CCC2C3CCC4=CC(=O)CCC4(C)C3C(OC(=O)CCOc3ccc(-c4noc(C)c4C(=O)NC4C(=O)N5C4SC(C)(C)C5C(=O)O)cc3)CC12C (stereo not drawn) [Conjugate 28] | 26 ± 26 |
| Cc1onc(-c2ccc(OCCOC3CCC4C5CCC6=CC(=O)CCC6(C)C5CCC34C)c(Cl)c2)c1C(=O)NC1C(=O)N2C1SC(C)(C)C2C(=O)O (stereo not drawn) [Conjugate 12] | 15 ± 16 |
| Cc1onc(-c2ccc(OC(=O)CCC(=O)OC3CCC4C5CCC6=CC(=O)CCC6C5CCC34C)cc2)c1C(=O)NC1C(=O)N2C1SC(C)(C)C2C(=O)O (stereo not drawn) [Conjugate 19] | 21 ± 24 |
| CC(=O)C1CCC2C3CCC4=CC(=O)CCC4(C)C3C(OC(=O)c3ccc(-c4noc(C)c4C(=O)NC4C(=O)N5C4SC(C)(C)C5C(=O)O)cc3)CC12C (stereo not drawn) [Conjugate 7] | 19 ± 27 |
| Cc1onc(-c2ccc(C(=O)NCCCCC(=O)OC3CCC4C5CCC6=CC(=O)CCC6(C)C5CCC34C)cc2)c1C(=O)NC1C(=O)N2C1SC(C)(C)C2C(=O)O (stereo not drawn) [Conjugate 9] | 17 ± 21 |
| Cc1onc(-c2ccc(OCCC(=O)OC3CCC4C5CCC6=CC(=O)CCC6(C)C5CCC34C)cc2)c1C(=O)NC1C(=O)N2C1SC(C)(C)C2C(=O)O (stereo not drawn) [Conjugate 24] | 21 ± 26 |
| Cc1onc(-c2ccc(C(=O)OC3CCC4C5CCc6cc(O)ccc6C5CCC34C)cc2)c1C(=O)NC1C(=O)N2C1SC(C)(C)C2C(=O)O (stereo not drawn) [Conjugate 4] | 24 ± 26 |
| Cc1onc(-c2ccc(OC(=O)CCC(=O)OC3CCC4C5CCC6=CC(=O)CCC6(C)C5CCC34C)cc2)c1C(=O)NC1C(=O)N2C1SC(C)(C)C2C(=O)O (stereo not drawn) [Conjugate 18] | 23 ± 19 |
| Cc1onc(-c2ccc(C(=O)NCCCOC3CCC4C5CCC6=CC(=O)CCC6(C)C5CCC34C)cc2)c1C(=O)NC1C(=O)N2C1SC(C)(C)C2C(=O)O (stereo not drawn) [Conjugate 16] | 26 ± 27 |
| Cc1onc(-c2ccc(OCCOC3CCC4C5CCC6=CC(=O)CCC6C5CCC34C)c(Cl)c2)c1C(=O)NC1C(=O)N2C1SC(C)(C)C2C(=O)O (stereo not drawn) [Conjugate 11] | 12 ± 14 |
| Cc1onc(-c2ccc(C(=O)OC3CCC4C5CCC6=CC(=O)CCC6(C)C5CCC34C)cc2)c1C(=O)NC1C(=O)N2C1SC(C)(C)C2C(=O)O (stereo not drawn) [Conjugate 6] | 22 ± 19 |
| Cc1onc(-c2ccc(C(=O)NCCCOC3CCC4C5CCC6=CC(=O)CCC6C5CCC34C)cc2)c1C(=O)NC1C(=O)N2C1SC(C)(C)C2C(=O)O (stereo not drawn) [Conjugate 15] | 28 ± 22 |

Each compound was assayed against T2, penicillin detector of the Beta-Star® Test (Bacillus licheniformis, UniProt P12287) (assay: Ka (apparent second-order rate constant for acyl enzyme formation), calculated using the penicillin detector of the Beta-Star Test). Details: Ka=k2/K.
T2 construct: purchased UCB, Belgium (BetaSTAR kit)
Format: binding
Source text: as §1
^□(Column 10): calculated using the penicillin detector of the Beta-Star® Test
The detector showing the best affinity for the progesterone benzylpenicillinate conjugate is the polypeptide included in the Beta-star® kit. This genetic engineering peptide has kept a very high affinity for benzylpenicillin but has no enzymatic activity. It is thus coupled to colored particles for allowing sensitive detection.

T2 sequence (P12287 346-601): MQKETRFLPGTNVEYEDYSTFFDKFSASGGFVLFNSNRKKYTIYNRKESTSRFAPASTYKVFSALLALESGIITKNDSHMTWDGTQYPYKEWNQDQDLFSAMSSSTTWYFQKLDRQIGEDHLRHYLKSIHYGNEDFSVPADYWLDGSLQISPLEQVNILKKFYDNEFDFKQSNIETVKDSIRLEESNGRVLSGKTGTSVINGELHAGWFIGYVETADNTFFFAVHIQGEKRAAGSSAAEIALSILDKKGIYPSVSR

| Compound | Ka |
| --- | --- |
| CC1(C)SC2C(NC(=O)Cc3ccc(CC(=O)OC4CCC5C6CCC7=CC(=O)CCC7(C)C6CCC45C)cc3)C(=O)N2C1C(=O)O (stereo not drawn) [Conjugate 31] | 4.1 ± 3.2 × 10^−6 L.M^−1 |
| CC(=O)C1CCC2C1CC(OC(C)Cc1ccc(CC(=O)NC3C(=O)N4C3SC(C)(C)C4C(=O)O)cc1)C1C3CCC(=O)C=C3CCC21 (stereo not drawn) [Conjugate 2] | 4.6 ± 3.0 × 10^−6 L.M^−1 |
| CC1(C)SC2C(NC(=O)Cc3ccc(CC(=O)OC4CCC5C6CCc7cc(O)ccc7C6CCC45C)cc3)C(=O)N2C1C(=O)O (stereo not drawn) [Conjugate 32] | 4.8 ± 3.5 × 10^−6 L.M^−1 |
| CC1(C)SC2C(NC(=O)Cc3ccc(CC(=O)OC4CCC5C6CCc7cc(O)ccc7C6CCC45C)cc3)C(=O)N2C1C(=O)O (stereo not drawn) [Conjugate 30] | 3.8 ± 2.9 × 10^−6 L.M^−1 |

These compounds were tested on CC(=O)C1CCC2C3CCC4=CC(=O)CCC4(C)C3C(OC(=O)c3ccc(-c4noc(C)c4C(=O)NC4C(=O)N5C4SC(C)(C)C5C(=O)O)cc3)CC12C (assay: purified protein, by the assay type). Details: other: conjugate; type C β-lactamase P99.

| Compound | Km [µM] | kcat [s⁻¹] |
| --- | --- | --- |
| type C β-lactamase from Enterobacter cloacae P99 (Enterobacter cloacae) | 0.0017 | 0.01 |

The compounds below were run on CC1(C)SC2C(NC(=O)C(C(=O)OC3CCC4C5CCC6=CC(=O)CCC6C5CCC34C)c3ccccc3)C(=O)N2C1C(=O)O (assay: purified protein, by the assay type). Details: other: conjugate; type C β-lactamase P99.

| Compound | Km [µM] | kcat [s⁻¹] |
| --- | --- | --- |
| type C β-lactamase from Enterobacter cloacae P99 (Enterobacter cloacae) | 0.074 | 0.25 |

These compounds were tested on O=C(Cc1cccs1)N[C@@H]1C(=O)N2C(C(=O)O)=C(/C=C/c3ccc([N+](=O)[O-])cc3[N+](=O)[O-])CS[C@H]12 (assay: purified protein, by the assay type). Details: other: reporter substrate; type C β-lactamase P99.

| Compound | Km [µM] | kcat [s⁻¹] |
| --- | --- | --- |
| type C β-lactamase from Enterobacter cloacae P99 (Enterobacter cloacae) | 25 | 780 |
